According to the NIST ThermoML archive (doi:10.1021/je900386p):
± gives the expanded uncertainty stated by the source.

Conditions: Crystal; visual observation

F[P-](F)(F)(F)(F)F.F[P-](F)(F)(F)(F)F.c1cc[n+](CCC[n+]2ccccc2)cc1 [1,1'-(1,3-propanediyl)bis-pyridinium hexafluorophosphate]
Normal melting temperature: 284.6 ± 1.4 °C
